Measured values from patent US8822449B2, “Substituted aminoindanes and analogs thereof, and the pharmaceutical use thereof” (Sanofi, priority 2008, dated 2014).

Target: T1, sodium-proton exchanger of subtype 3 (NHE3) (Homo sapiens, UniProt P48764)
T1 construct: expressed in transfected cells
T1 sequence (P48764 26-834): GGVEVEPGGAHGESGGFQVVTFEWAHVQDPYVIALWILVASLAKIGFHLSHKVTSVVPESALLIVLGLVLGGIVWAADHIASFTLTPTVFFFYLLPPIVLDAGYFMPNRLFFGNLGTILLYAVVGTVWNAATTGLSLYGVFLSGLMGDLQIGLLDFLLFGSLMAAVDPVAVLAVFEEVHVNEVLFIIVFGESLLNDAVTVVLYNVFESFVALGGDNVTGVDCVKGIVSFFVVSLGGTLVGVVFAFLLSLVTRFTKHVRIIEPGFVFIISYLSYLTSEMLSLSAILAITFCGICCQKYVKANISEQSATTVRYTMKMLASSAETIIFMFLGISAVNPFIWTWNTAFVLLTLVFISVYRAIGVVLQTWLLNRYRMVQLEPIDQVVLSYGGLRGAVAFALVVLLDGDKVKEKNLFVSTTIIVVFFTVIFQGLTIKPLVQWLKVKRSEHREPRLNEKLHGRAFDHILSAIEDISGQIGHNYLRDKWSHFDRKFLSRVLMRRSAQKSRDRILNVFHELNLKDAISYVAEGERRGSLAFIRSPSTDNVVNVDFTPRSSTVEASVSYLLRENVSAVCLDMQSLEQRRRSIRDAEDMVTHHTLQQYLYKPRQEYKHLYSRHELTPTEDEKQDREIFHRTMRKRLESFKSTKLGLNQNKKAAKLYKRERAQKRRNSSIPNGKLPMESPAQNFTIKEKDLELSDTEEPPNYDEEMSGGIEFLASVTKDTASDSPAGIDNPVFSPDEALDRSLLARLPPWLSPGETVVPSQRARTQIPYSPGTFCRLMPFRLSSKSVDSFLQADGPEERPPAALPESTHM
Test: Recovery of intracellular pH (pHi) after acidification in LAP1 cells stably expressing NHE3 (BCECF fluorescence, FLIPR)
Assay type: cell-based
Details: LAP1 cells stably expressing NHE3; pH recovery after acidification; range 1 is % inhibition at 10 μM; read-out: Activity range (inhibitory effect on NHE3)

SMILES | IC50 [µM] | inhibition at 10 µM [%]
NC1CCN([C@@H]2Cc3ccccc3[C@H]2Oc2ccnc3ccccc23)C1 (mixture of isomers) [Example 275, 1-[rac-trans-(1,2)-1-(quinolin-4-yloxy)indan-2-yl]pyrrolidin-3-ylamine] | 1 to 10 | –
N[C@@H]1CCCN([C@H]2CCc3ccccc3[C@@H]2Oc2ccc(F)cc2F)C1 (racemic) [Example 32, (R)-1-[rac-trans-(1,2)-1-(2,4-difluorophenoxy)-1,2,3,4-tetrahydronaphthalen-2-yl]piperidin-3-ylamine] | – | 20 to 50
N[C@@H]1CCCN([C@@H]2Cc3ccccc3[C@H]2Oc2cccc(N3CCCCC3)c2)C1 (racemic) [Example 59, (R)-1-[rac-trans-(1,2)-1-(3-piperidin-1-ylphenoxy)indan-2-yl]piperidin-3-ylamine] | 1 to 10 | –
Clc1ccc(O[C@@H]2c3ccccc3C[C@H]2N2C[C@H]3CNC[C@H]3C2)cn1 (racemic) [Example 18, 2-[rac-trans-(1,2)-1-(6-chloropyridin-3-yloxy)indan-2-yl]octahydropyrrolo[3,4-c]pyrrole] | 1 to 10 | –
NS(=O)(=O)c1ccc(O[C@H]2c3ccccc3C[C@@H]2N2CCCC2)c(F)c1 (racemic) [Example 451, 3-fluoro-4-(2-pyrrolidin-1-ylindan-1-yloxy)benzenesulfonamide] | < 1 | –
N[C@@H]1CCCN([C@H]2CCc3ccccc3[C@@H]2Oc2ccc(F)cc2-c2ccno2)C1 (racemic) [Example 68, (R)-1-[rac-trans-(1,2)-1-(4-fluoro-2-isoxazol-5-ylphenoxy)-1,2,3,4-tetrahydronaphthalen-2-yl]piperidin-3-ylamine] | – | 20 to 50
N[C@@H]1CCCN([C@@H]2Cc3ccccc3[C@H]2Oc2cccc3[nH]ccc23)C1 (racemic) [Example 30, (R)-1-[rac-trans-(1,2)-1-(1H-indol-4-yloxy)indan-2-yl]piperidin-3-ylamine] | 1 to 10 | –
N#Cc1c(F)cccc1O[C@H]1c2ccccc2CC[C@@H]1N1CCC[C@@H](N)C1 (racemic) [Example 367, 2-[rac-trans-(1,2)-2-((R)-3-aminopiperidin-1-yl)-1,2,3,4-tetrahydronaphthalen-1-yloxy]-6-fluorobenzonitrile] | – | 20 to 50
NCC1CCN([C@@H]2Cc3ccccc3[C@H]2Oc2ccc3[nH]cc(CC(N)=O)c3c2)CC1 (racemic) [Example 388, 2-{5-[rac-trans-(1,2)-2-(4-aminomethylpiperidin-1-yl)indan-1-yloxy]-1H-indol-3-yl}acetamide] | 1 to 10 | –
CS(=O)(=O)c1ccc(O[C@H]2c3cc(Cl)cc(Cl)c3C[C@@H]2N2CC[C@@H](O)C2)cc1 [Example 103, (R)-1-[trans-(1S,2S)-4,6-dichloro-1-(4-methanesulfonylphenoxy)indan-2-yl]pyrrolidin-3-ol] | < 1 | –
Cc1nnc(C)n1-c1ccc(O[C@H]2c3cc(Cl)ccc3C[C@@H]2N2CC[C@@H](F)C2)c(Cl)c1 [Example 558, 4-{3-chloro-4-[trans-(1S,2S)-6-chloro-2-((R)-3-fluoropyrrolidin-1-yl)indan-1-yloxy]phenyl}-3,5-dimethyl-4H-[1,2,4]triazole] | < 1 | –
CN(c1ccc(O[C@H]2c3cc(Cl)cc(Cl)c3C[C@@H]2N2CC[C@@H](O)C2)cc1)S(C)(=O)=O [Example 698, N-{4-[(1S,2S)-4,6-dichloro-2-((R)-3-hydroxypyrrolidin-1-yl)indan-1-yloxy]phenyl}-N-methylmethanesulfonamide] | < 1 | –
Cc1ccc(O[C@H]2c3ccccc3CC[C@@H]2N2CCC[C@H](N)C2)c(Br)c1 (racemic) [Example 150, (S)-1-[rac-trans-(1,2)-1-(2-bromo-4-methylphenoxy)-1,2,3,4-tetrahydronaphthalen-2-yl]piperidin-3-ylamine] | – | 20 to 50
CN1CCN(c2ccc(F)c(O[C@H]3c4cc(Cl)cc(Cl)c4C[C@@H]3N3CC[C@@H](O)C3)c2)C1=O [Example 314, 1-{3-[(1S,2S)-4,6-dichloro-2-((R)-3-hydroxypyrrolidin-1-yl)indan-1-yloxy]-4-fluorophenyl}-3-methylimidazolidin-2-one] | < 1 | –
N[C@@H]1CCCN([C@H]2CCc3ccccc3[C@@H]2Oc2ccc(N3CCNCC3)cc2)C1 (racemic) [Example 75, (R)-1-[rac-trans-(1,2)-1-(4-piperazin-1-ylphenoxy)-1,2,3,4-tetrahydronaphthalen-2-yl]piperidin-3-ylamine] | – | 20 to 50
CS(=O)(=O)c1ccc(O[C@@H]2c3cc(Cl)cc(F)c3C[C@H]2N2CCC[C@@H](N)C2)cc1 (racemic) [Example 93, (R)-1-[rac-trans-(1,2)-6-chloro-4-fluoro-1-(4-methanesulfonylphenoxy)indan-2-yl]piperidin-3-ylamine] | < 1 | –
CC(=O)Nc1cccc(O[C@H]2c3cc(Cl)cc(Cl)c3C[C@@H]2N2CCCC2)c1 (racemic) [Example 648, N-[3-(rac-trans-(1,2)-4,6-dichloro-2-pyrrolidin-1-ylindan-1-yloxy)phenyl]acetamide] | 1 to 10 | –
CN1CCN(c2ccc(O[C@H]3c4cc(Cl)cc(Cl)c4C[C@@H]3N3CC[C@@H](O)C3)cc2)C1=O [Example 332, 1-{4-[trans-(1S,2S)-4,6-dichloro-2-((R)-3-hydroxypyrrolidin-1-yl)indan-1-yloxy]phenyl}-3-methylimidazolidin-2-one] | 1 to 10 | –
CC(=O)Nc1ccc(S[C@H]2c3cc(Cl)cc(Cl)c3C[C@@H]2N2CC[C@@H](O)C2)cc1 [Example 699, N-{4-[(1S,2S)-4,6-dichloro-2-((R)-3-hydroxypyrrolidin-1-yl)indan-1-ylsulfanyl]phenyl}acetamide] | 1 to 10 | –
N#Cc1ccc(O[C@@H]2c3ccccc3C[C@H]2N2CCC(CN)CC2)cc1Cl (racemic) [Example 546, 4-[rac-trans-(1,2)-2-(4-aminomethylpiperidin-1-yl)indan-1-yloxy]-2-chlorobenzonitrile] | 1 to 10 | –
COCCc1ccc(O[C@H]2c3ccccc3CC[C@@H]2N2CCC[C@H](N)C2)cc1 (racemic) [Example 202, (S)-1-{rac-trans-(1,2)-1-[4-(2-methoxyethyl)phenoxy]-1,2,3,4-tetrahydronaphthalen-2-yl}piperidin-3-ylamine] | – | 20 to 50
CCc1ccc(O[C@@H]2c3ccccc3C[C@H]2N2CCC(CN)C2)c(C(C)(C)C)c1 (mixture of isomers) [Example 610, C-{1-[rac-trans-(1,2)-1-(2-tert-butyl-4-ethylphenoxy)indan-2-yl]pyrrolidin-3-yl}methylamine] | 1 to 10 | –
Cc1nnc(C)n1-c1ccc(O[C@H]2c3cc(Cl)cc(F)c3C[C@@H]2N2CC[C@@H](O)C2)c(Cl)c1 [Example 138, (R)-1-{trans-(1S,2S)-6-chloro-1-[2-chloro-4-(3,5-dimethyl-[1,2,4]triazol-4-yl)phenoxy]-4-fluoroindan-2-yl}pyrrolidin-3-ol] | < 1 | –
CCc1nnc(C(C)C)n1-c1ccc(O[C@H]2c3cc(Cl)cc(Cl)c3C[C@@H]2N2CC[C@@H](O)C2)cc1 [Example 716, (R)-1-{trans-(1S,2S)-4,6-Dichloro-1-[4-(3-ethyl-5-isopropyl-[1,2,4]triazol-4-yl)-phenoxy]-indan-2-yl}-pyrrolidin-3-ol] | < 1 | –
Cc1ccc(O[C@@H]2c3ccccc3C[C@H]2N2CCC(CN)CC2)c(Br)c1 (racemic) [Example 603, C-{1-[rac-trans-(1,2)-1-(2-bromo-4-methylphenoxy)indan-2-yl]piperidin-4-yl}methylamine] | 1 to 10 | –
NC1CCN([C@@H]2Cc3ccccc3[C@H]2Oc2ccc(S(N)(=O)=O)c(Cl)c2Cl)C1 (mixture of isomers) [Example 542, 4-[rac-trans-(1,2)-2-(3-aminopyrrolidin-1-yl)indan-1-yloxy]-2,3-dichlorobenzenesulfonamide] | < 1 | –
CS(=O)(=O)c1ccc(O[C@H]2c3cc(Cl)cc(Cl)c3C[C@@H]2N2CCNCC2)cc1 [Example 308, 1-[trans-(1S,2S)-4,6-dichloro-1-(4-methanesulfonylphenoxy)indan-2-yl]piperazine] | < 1 | –
Cc1cc(O[C@H]2c3ccccc3CC[C@@H]2N2CCC[C@@H](N)C2)ccc1Cl (racemic) [Example 65, (R)-1-[rac-trans-(1,2)-1-(4-chloro-3-methylphenoxy)-1,2,3,4-tetrahydronaphthalen-2-yl]piperidin-3-ylamine] | – | 20 to 50
NS(=O)(=O)c1ccc(O[C@@H]2c3ccccc3C[C@H]2NC2CC2)c(F)c1 (racemic) [Example 703, 4-(rac-trans-(1,2)-2-Cyclopropylamino-indan-1-yloxy)-3-fluoro-benzenesulfonamide] | 1 to 10 | –
N[C@H]1CCCN([C@H]2CCc3ccccc3[C@@H]2Oc2ccccc2N2CCOCC2)C1 (racemic) [Example 158, (S)-1-[rac-trans-(1,2)-1-(2-morpholin-4-ylphenoxy)-1,2,3,4-tetrahydronaphthalen-2-yl]piperidin-3-ylamine] | – | 20 to 50
